Results: patent US20230250123A1, “GUT MICROBIOTA BIOACTIVATED PDE4 INHIBITOR PRECURSORS” (Giiant Pharma Inc., priority 2020, published 2023)
pIC50: −log10 of the molar value.

What was measured:
[1] = Negative control: incubation in mouse feces extract supernatant inactivated by boiling; assay type: in vitro ADME; conditions: 24 hours, mouse feces supernatant boiled 10 minutes (no enzyme activities)
Method: (§1) In vitro rate of glycoside prodrugs hydrolysis. The metabolic stability of prodrug candidates to release the parent PDE4 inhibitor could be assessed in vitro according, but not restricted, to the following protocol: feces were collected overnight on a mixture of dry and wet ice in a metabolic cage. Ten volumes (v/w; 30 mL) of 100 mM phosphate buffer (pH 6.5) were added to 3 g of freshly collected rodent feces. The mixture was homogenized with a Stomacher Circulator 400 (2 × 1 min-cycles at 225 rpm). The mixture was transferred to a 50 mL tubes, centrifuged at 10 000xg for 10 min (4° C.) and the supernatant was passed through a 0.45 µm-filter. In a 96 deep-well plate, 198 µL of feces supernatant were aliquoted in 2 wells per compound. Each compound, including positive control, was tested in duplicate. Then 2 µL of 10 mM stock solution of each test compound were spiked in individual wells (duplicate) at a final concentration of 100 µM and samples were sealed and mixed 30 sec at 1000 rpm using a vortexer. Samples were incubated at 37° C. for the desired time in the Thermomixer with constant agitation (300 rpm). At desired time-point, 25 µL of reaction mixture was added to 225 µL of ice-cold quenching solution (acetonitrile + 0.1% (v/v) formic acid) to stop the bacterial enzymatic activity. The quenched incubates were mixed and centrifuged 10 min at 21 000xg at 4° C. A real t0 (no metabolism, 100% total recovery of unchanged prodrug) was generated by adding 22.5 µL of feces supernatant to 225 µL of ice-cold quenching solution (acetonitrile + 0.1% (v/v) formic acid). Then 2.5 µL of 1 mM solution of each test compounds was added, sealed, mixed thoroughly and centrifuged 10 min at 21 000xg at 4° C. All samples, including analytical standards, were analyzed by LC-MS/MS to measure the concentration of the parent PDE4 inhibitor released and the concentration of the corresponding prodrug remaining. […]

[2] = In vitro rate of glycoside prodrug hydrolysis in feces supernatant, mouse; assay type: in vitro ADME; conditions: 100 µM, 37° C., pH 6.5, 24 hr
Method: (§2) In vitro rate of glycoside prodrugs hydrolysis. The metabolic stability of prodrug candidates to release the parent PDE4 inhibitor could be assessed in vitro according, but not restricted, to the following protocol: feces were collected overnight on a mixture of dry and wet ice in a metabolic cage. Ten volumes (v/w; 30 mL) of 100 mM phosphate buffer (pH 6.5) were added to 3 g of freshly collected rodent feces. The mixture was homogenized with a Stomacher Circulator 400 (2 × 1 min-cycles at 225 rpm). The mixture was transferred to a 50 mL tubes, centrifuged at 10 000xg for 10 min (4° C.) and the supernatant was passed through a 0.45 µm-filter. In a 96 deep-well plate, 198 µL of feces supernatant were aliquoted in 2 wells per compound. Each compound, including positive control, was tested in duplicate. Then 2 µL of 10 mM stock solution of each test compound were spiked in individual wells (duplicate) at a final concentration of 100 µM and samples were sealed and mixed 30 sec at 1000 rpm using a vortexer. Samples were incubated at 37° C. for the desired time in the Thermomixer with constant agitation (300 rpm). At desired time-point, 25 µL of reaction mixture was added to 225 µL of ice-cold quenching solution (acetonitrile + 0.1% (v/v) formic acid) to stop the bacterial enzymatic activity. The quenched incubates were mixed and centrifuged 10 min at 21 000xg at 4° C. A real t0 (no metabolism, 100% total recovery of unchanged prodrug) was generated by adding 22.5 µL of feces supernatant to 225 µL of ice-cold quenching solution (acetonitrile + 0.1% (v/v) formic acid). Then 2.5 µL of 1 mM solution of each test compounds was added, sealed, mixed thoroughly and centrifuged 10 min at 21 000xg at 4° C. All samples, including analytical standards, were analyzed by LC-MS/MS to measure the concentration of the parent PDE4 inhibitor released and the concentration of the corresponding prodrug remaining. A set criteria of 100% recovery is targeted where the summation of the % of prodrug remaining and the % of parent PDE4 inhibitor released should be 100% with an experimental error tolerance of ± 20%. When prodrugs represented by Formula (I) were incubated 24 hours under the conditions described above using mouse, rat and dog feces, the glycoside prodrugs were hydrolyzed to release the corresponding parent PDE4 inhibitor III (Table 3). As a negative control, when compound 4, 10 and 21 were incubated 24 hours under the conditions described above but in the absence of enzyme activities, using mouse feces extract supernatant inactivated by boiling the supernatant 10 minutes, 100% of the prodrugs were recovered unchanged.

[3] = Bidirectional Caco-2 permeability assay; assay type: in vitro ADME; conditions: human; Caco-2, 10 µM, apical pH 6.0 / basolateral pH 7.4, average of 2 determinations
Method: In vitro glycoside prodrug permeability assessment. The permeability of the glycoside prodrugs were measured using the bidirectional Caco-2 assay. Caco-2 cells were seeded onto permeable polycarbonate supports in 12-well Costar Transwell plates and allowed to grow and differentiate for 21-25 days. On day 24, culture medium (DMEM supplemented with 10% FBS, 1% non-essential amino acids and penicillin/streptomycin) was removed from both sides of the transwell inserts and cells were rinsed with warm HBSS. […] The buffer in the donor chamber (apical side for A-to-B assay, basolateral side for B-to-A assay) was removed and replaced with the working solution (10 µM test article in transport buffer). The plates were then placed at 37° C. under light agitation. At designated time points (30, 60 and 90 min); an aliquot of transport buffer from the receiver chamber was removed and replenished with fresh transport buffer. Samples were quenched with ice-cold CH3CN containing internal standard and then centrifuged to precipitate the protein. Resulting supernatants were further diluted with 50/50 ACN/H2O (H2O only for Atenolol) and submitted for LC/MS/MS analysis. […] Atenolol and propranolol were tested as low and […] permeability references. […] The apparent permeability (Papp, measured in cm/s) of a compound is determined according to the following formula: […]
Where dQ/dt is the net rate of appearance in the receiver compartment, A is the area of the Transwell measured in cm^2 (1.12 cm^2), C0 is the initial concentration of compound added to the donor chamber and 60 is the conversion factor for the minute to second.

[4] = In vitro rate of glycoside prodrug hydrolysis in feces supernatant, rat; assay type: in vitro ADME; conditions: 100 µM, 37° C., pH 6.5, 24 hr
Method: as §2

[5] = system: β-D-glucuronidase; assay: Positive control: incubation with β-D-glucuronidase in phosphate buffer; assay type: in vitro ADME; conditions: β-D-glucuronidase 50U/mL, phosphate buffer pH 6.5, 37° C., 24 hours
[6] = system: type-IV cAMP-specific phosphodiesterases; assay: Inhibitory potency against PDE4 isozymes (isozyme not given); assay type: biochemical; conditions: sample contaminated with 0.17% of IIIa, which accounts for 100% of the potency recorded; read-out: IC50 (PDE4, isozyme not stated)
[7] = In vitro rate of glycoside prodrug hydrolysis in feces supernatant, dog; assay type: in vitro ADME; conditions: 100 µM, 37° C., pH 6.5, 24 hr
Method: as §1, with “At desired time-point, 25 µL of reaction mixture was added to 225 µL of ice-cold quenching solution (acetonitrile + 0.1% (v/v) formic acid) to stop the bacterial enzymatic activity. The quenched incubates were mixed and centrifuged 10 min at 21 000xg at 4° C. A real t0 (no metabolism, 100% total recovery of unchanged prodrug) was generated by adding 22.5 µL of feces supernatant to 225 µL of ice-cold quenching solution (acetonitrile + 0.1% (v/v) formic acid). Then 2.5 µL of 1 mM solution of each test compounds was added, sealed, mixed thoroughly and centrifuged 10 min at 21 000xg at 4° C.” left out

[8] = molecular target: PDE4A1A (Homo sapiens, UniProt P27815); assay: Inhibitory potency against PDE4 isozymes (FAM-cAMP fluorescence polarization), PDE4A1A
PDE4A1A, sequence (P27815 1-647 isoform P27815-4): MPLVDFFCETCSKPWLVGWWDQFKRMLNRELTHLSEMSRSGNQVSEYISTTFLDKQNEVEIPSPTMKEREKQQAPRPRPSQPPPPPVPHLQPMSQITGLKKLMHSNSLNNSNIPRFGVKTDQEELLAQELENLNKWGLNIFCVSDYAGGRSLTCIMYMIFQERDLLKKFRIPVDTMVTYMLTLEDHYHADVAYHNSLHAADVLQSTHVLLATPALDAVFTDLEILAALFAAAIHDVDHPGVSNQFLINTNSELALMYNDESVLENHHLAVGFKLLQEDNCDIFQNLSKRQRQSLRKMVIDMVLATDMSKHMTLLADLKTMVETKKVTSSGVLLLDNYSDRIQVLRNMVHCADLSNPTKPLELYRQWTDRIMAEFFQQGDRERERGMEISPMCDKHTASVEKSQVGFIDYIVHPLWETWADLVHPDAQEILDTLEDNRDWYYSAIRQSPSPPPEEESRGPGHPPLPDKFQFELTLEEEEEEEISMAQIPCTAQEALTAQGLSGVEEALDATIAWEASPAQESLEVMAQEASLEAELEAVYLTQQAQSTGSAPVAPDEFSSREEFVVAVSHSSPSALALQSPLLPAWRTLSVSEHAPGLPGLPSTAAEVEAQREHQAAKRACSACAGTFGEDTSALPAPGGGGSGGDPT

[9] = system: LPS-induced TNFα in human whole blood; assay: LPS-induced TNFα assay in human whole blood; assay type: cell-based; conditions: human whole blood from 12 healthy volunteers, LPS 1 µg/mL, 24 h; read-out: average IC50, TNFα inhibition
[10] = molecular target: PDE4D2 (Homo sapiens, UniProt Q08499); assay: Inhibitory potency against PDE4 isozymes (FAM-cAMP fluorescence polarization), PDE4D2
PDE4D2, sequence (Q08499 303-809 limits assumed): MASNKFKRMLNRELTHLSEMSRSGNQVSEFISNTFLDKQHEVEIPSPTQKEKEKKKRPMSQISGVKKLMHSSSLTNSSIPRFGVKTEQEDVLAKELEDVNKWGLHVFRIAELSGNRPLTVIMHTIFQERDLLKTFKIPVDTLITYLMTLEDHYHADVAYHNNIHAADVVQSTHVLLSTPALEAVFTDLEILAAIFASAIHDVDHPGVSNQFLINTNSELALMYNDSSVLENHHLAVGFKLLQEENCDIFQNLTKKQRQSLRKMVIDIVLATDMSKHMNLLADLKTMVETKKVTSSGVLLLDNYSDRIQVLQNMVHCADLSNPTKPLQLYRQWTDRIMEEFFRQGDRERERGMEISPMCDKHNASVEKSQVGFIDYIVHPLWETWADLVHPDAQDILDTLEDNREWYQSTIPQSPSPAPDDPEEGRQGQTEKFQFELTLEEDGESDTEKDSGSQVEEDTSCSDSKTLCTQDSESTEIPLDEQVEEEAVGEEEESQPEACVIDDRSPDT

[11] = molecular target: PDE4B1 (Homo sapiens, UniProt Q07343); assay: Inhibitory potency against PDE4 isozymes (FAM-cAMP fluorescence polarization), PDE4B1
PDE4B1, sequence (Q07343 whole entry, species assumed): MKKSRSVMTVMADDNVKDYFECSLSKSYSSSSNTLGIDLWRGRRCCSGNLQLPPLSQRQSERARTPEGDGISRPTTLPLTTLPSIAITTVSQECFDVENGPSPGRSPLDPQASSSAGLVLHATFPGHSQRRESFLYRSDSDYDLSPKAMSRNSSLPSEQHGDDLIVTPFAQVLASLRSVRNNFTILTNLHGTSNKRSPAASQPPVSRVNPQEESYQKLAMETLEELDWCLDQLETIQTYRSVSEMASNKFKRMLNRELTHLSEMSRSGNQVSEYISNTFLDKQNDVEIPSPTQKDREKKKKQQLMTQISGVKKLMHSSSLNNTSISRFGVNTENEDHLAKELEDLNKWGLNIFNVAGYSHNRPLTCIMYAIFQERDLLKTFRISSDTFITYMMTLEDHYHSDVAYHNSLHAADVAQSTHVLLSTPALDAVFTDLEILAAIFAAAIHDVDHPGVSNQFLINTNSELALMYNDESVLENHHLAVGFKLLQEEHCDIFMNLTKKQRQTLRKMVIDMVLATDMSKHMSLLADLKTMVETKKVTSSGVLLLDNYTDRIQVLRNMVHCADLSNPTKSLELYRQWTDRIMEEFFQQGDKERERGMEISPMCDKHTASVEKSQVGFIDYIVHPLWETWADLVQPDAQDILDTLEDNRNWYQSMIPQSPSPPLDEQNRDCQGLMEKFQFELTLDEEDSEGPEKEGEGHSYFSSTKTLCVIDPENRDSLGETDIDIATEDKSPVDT

| Structure (SMILES) | Prodrug Remaining @ 24 hr (%) [2] [%] | Papp A→B at 10 µM [3] [×10⁻⁶ cm/s] | Prodrug Remaining @ 24 hr (%) [4] [%] | further results |
| --- | --- | --- | --- | --- |
| CC(C)(O)c1ccc([C@@H](Cc2ccc(OC3O[C@H](CO)[C@@H](O)[C@H](O)[C@H]3N)nc2)c2ccc(OC(F)F)c(OC3CC3)c2)cn1 (mixture of isomers) [Compound 21, (2R,3S,4R,5R)-5-amino-6-((5-((S)-2-(3-cyclopropoxy-4-(difluoromethoxy)phenyl)-2-(6-(2-hydroxypropan-2-yl)pyridin-3-yl)ethyl)pyridin-2-yl)oxy)-2-(hydroxymethyl)tetrahydro-2H-pyran-3,4-diol] |  |  |  | prodrug recovered unchanged [1]: 100% |
| CC(C)(O)c1ccc([C@@H](Cc2ccc(O[C@@H]3O[C@H](CO)[C@@H](O)[C@H](O)[C@H]3O)nc2)c2ccc(OC(F)F)c(OC3CC3)c2)cn1 [Compound 4, (2S,3R,4S,5S,6R)-2-((5-((S)-2-(3-cyclopropoxy-4-(difluoromethoxy)phenyl)-2-(6-(2-hydroxypropan-2-yl)pyridin-3-yl)ethyl)pyridin-2-yl)oxy)-6-(hydroxymethyl)tetrahydro-2H-pyran-3,4,5-triol] | 0.1 | 0.08 | 0.0 | prodrug recovered unchanged [1]: 100% |
| CC(=O)OC[C@H]1O[C@@H](Oc2ccc(C[C@H](c3ccc(C(C)(C)O)nc3)c3ccc(OC(F)F)c(OC4CC4)c3)cn2)[C@H](O)[C@@H](OC(C)=O)[C@@H]1OC(C)=O [Compound 5, (2R,3R,4R,5R,6S)-2-(acetoxymethyl)-6-((5-((S)-2-(3-cyclopropoxy-4-(difluoromethoxy)phenyl)-2-(6-(2-hydroxypropan-2-yl)pyridin-3-yl)ethyl)pyridin-2-yl)oxy)-5-hydroxytetrahydro-2H-pyran-3,4-diyl diacetate] | 0.0 | 0.9 | 0.0 |  |
| CC(C)(O)c1ccc([C@@H](Cc2ccc(O[C@@H]3O[C@H](C(=O)[O-])[C@@H](O)[C@H](O)[C@H]3O)nc2)c2ccc(OC(F)F)c(OC3CC3)c2)cn1.[Li+] [Compound 9, lithium (2S,3S,4S,5R,6S)-6-((5-((S)-2-(3-cyclopropoxy-4-(difluoromethoxy)phenyl)-2-(6-(2-hydroxypropan-2-yl)pyridin-3-yl)ethyl)pyridin-2-yl)oxy)-3,4,5-trihydroxytetrahydro-2H-pyran-2-carboxylate] | 3.3 |  | 4.2 | prodrug recovered unchanged [5]: 2% |
| N[C@H]1[C@H](Oc2ccc(C[C@@H](c3ccc(OC(F)F)c(OC4CC4)c3)c3cnc(C(O)(C(F)(F)F)C(F)(F)F)s3)cn2)O[C@H](CO)[C@@H](O)[C@@H]1O [Compound 22, (2R,3S,4R,5R,6S)-5-amino-6-((5-((S)-2-(3-cyclopropoxy-4-(difluoromethoxy)phenyl)-2-(2-(1,1,1,3,3,3-hexafluoro-2-hydroxypropan-2-yl)thiazol-5-yl)ethyl)pyridin-2-yl)oxy)-2-(hydroxymethyl)tetrahydro-2H-pyran-3,4-diol] | 62 | 0.2 |  | pIC50 [6]: < 7.00 |

More lines, main results first:

| Prodrug Remaining @ 24 hr (%) [2] [%] | Papp A→B at 10 µM [3] [×10⁻⁶ cm/s] | Structure (SMILES) | Prodrug Remaining @ 24 hr (%) [4] [%] | further results |
| --- | --- | --- | --- | --- |
| 65 |  | CC(C)(O)c1ccc([C@@H](Cc2ccc(O[C@@H]3O[C@H](CO)[C@@H](O)[C@H](O)[C@H]3N)nc2)c2ccc(OC(F)F)c(OC3CC3)c2)cn1 [Compound 23, (2R,3S,4R,5R,6S)-5-amino-6-((5-((S)-2-(3-cyclopropoxy-4-(difluoromethoxy)phenyl)-2-(6-(2-hydroxypropan-2-yl)pyridin-3-yl)ethyl)pyridin-2-yl)oxy)-2-(hydroxymethyl)tetrahydro-2 H-pyran-3,4-diol] |  | Prodrug Remaining @ 24 hr (%) [7]: 75% |
| 96 | 2.8 | C[N+](C)(C)[C@H]1[C@H](Oc2ccc(C[C@@H](c3ccc(OC(F)F)c(OC4CC4)c3)c3cnc(C(O)(C(F)(F)F)C(F)(F)F)s3)cn2)O[C@H](CO)[C@@H](O)[C@@H]1O.[I-] [Compound 26, (2S,3R,4R,5S,6R)-2-((5-((S)-2-(3-cyclopropoxy-4-(difluoromethoxy)phenyl)-2-(2-(1,1,1,3,3,3-hexafluoro-2-hydroxypropan-2-yl)thiazol-5-yl)ethyl)pyridin-2-yl)oxy)-4,5-dihydroxy-6-(hydroxymethyl)-N,N,N-trimethyltetrahydro-2H-pyran-3-aminium iodide] |  |  |
|  | 0.02 | CC(C)(O)c1ccc([C@@H](Cc2ccc(O[C@@H]3O[C@H](CO)[C@@H](O[C@@H]4O[C@H](CO)[C@@H](O)[C@H](O)[C@H]4O)[C@H](O)[C@H]3O)nc2)c2ccc(OC(F)F)c(OC3CC3)c2)cn1 [Compound 31, (2S,3R,4S,5S,6R)-2-(((2R,3S,4R,5R,6S)-6-((5-((S)-2-(3-cyclopropoxy-4-(difluoromethoxy)phenyl)-2-(6-(2-hydroxypropan-2-yl)pyridin-3-yl)ethyl)pyridin-2-yl)oxy)-4,5-dihydroxy-2-(hydroxymethyl)tetrahydro-2H-pyran-3-yl)oxy)-6-(hydroxymethyl)tetrahydro-2H-pyran-3,4,5-triol] | 0.6 |  |
|  | 19.1 | O=c1ccc(C[C@@H](c2ccc(OC(F)F)c(OC3CC3)c2)c2cnc(C(O)(C(F)(F)F)C(F)(F)F)s2)c[nH]1 [IIIa, (S)-5-(2-(3-cyclopropoxy-4-(difluoromethoxy)phenyl)-2-(2-(1,1,1,3,3,3-hexafluoro-2-hydroxypropan-2-yl)thiazol-5-yl)ethyl)pyridin-2(1H)-one] |  | pIC50 [8]: > 8.00; pIC50 [9]: > 7.30; pIC50 [10]: > 8.00; pIC50 [11]: > 8.00 |
